From patent US20080248511A1, “METHODS TO QUENCH LIGHT FROM OPTICAL REACTIONS” (priority 2007, published 2008)

Assays:
Renilla luciferase = molecular target: T1, Renilla luciferase (Renilla reniformis, UniProt P27652); assay: Non-detergent compound screen, Renilla luciferase (Example 6); format: biochemical; settings: for remaining activity at 23 µM / remaining activity at 153 µM / remaining activity at 1000 µM / remaining activity at 10 µM / remaining activity at 100 µM: 0.5% Tergitol NP-9, 0.03% BDDABr, read-out: Retained Renilla Luciferase Value (%)
T1 sequence (P27652 1-311): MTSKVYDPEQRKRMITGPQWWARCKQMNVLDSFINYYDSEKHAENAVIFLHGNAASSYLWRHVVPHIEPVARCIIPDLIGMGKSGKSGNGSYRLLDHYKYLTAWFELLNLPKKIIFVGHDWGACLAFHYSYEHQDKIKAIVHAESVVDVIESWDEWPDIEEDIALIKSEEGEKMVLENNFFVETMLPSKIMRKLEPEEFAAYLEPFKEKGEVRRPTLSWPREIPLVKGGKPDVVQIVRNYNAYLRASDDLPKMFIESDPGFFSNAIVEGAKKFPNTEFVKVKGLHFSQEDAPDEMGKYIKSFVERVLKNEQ
Description: (§1) Each compound was diluted into 200 mM MOPS pH 6.7, 4 μM MgSO4, 1 mM CDTA, 0.5% Tergitol NP-9, 0.05% Mazu-DF-204, 0.03% BDDABr, 30 mM thiourea, 1 mM bis-(2-mercaptoethylsulfone) (BMS), 4 μM CoA, and 1 μM 5-fluoroluciferin. Just prior to the luciferase reaction, 0.1% Prionex® (Pentapharm) and 2.9 μM coelenterazine-h (Promega) were added to each solution.
(§2) The firefly luciferase and Renilla luciferase enzymes were diluted as described in Examples 3 and 5. The luciferase reactions were initiated by adding 50 μl of the firefly luciferase and Renilla luciferase enzyme solution to 50 μl of reagent solution. The reactions were performed as described above. The retained Renilla and firefly luciferase-mediated luminescence and selectivity values for each inhibitor tested are listed in Table 6.

firefly luciferase = firefly luciferase (Photinus pyralis, UniProt P08659); assay: Non-detergent compound screen, firefly luciferase (Example 6); format: biochemical; settings: 0.5% Tergitol NP-9, 0.03% BDDABr, read-out: Retained Firefly Luciferase Value (%); for remaining activity at 23 µM: inhibitor 23 μM; for remaining activity at 153 µM: inhibitor 153 μM; for remaining activity at 1000 µM: inhibitor 1000 μM; for remaining activity at 10 µM: inhibitor 10 μM; for remaining activity at 100 µM: inhibitor 100 μM
Description: as §1, §2

firefly luciferase, sequence (P08659 whole entry): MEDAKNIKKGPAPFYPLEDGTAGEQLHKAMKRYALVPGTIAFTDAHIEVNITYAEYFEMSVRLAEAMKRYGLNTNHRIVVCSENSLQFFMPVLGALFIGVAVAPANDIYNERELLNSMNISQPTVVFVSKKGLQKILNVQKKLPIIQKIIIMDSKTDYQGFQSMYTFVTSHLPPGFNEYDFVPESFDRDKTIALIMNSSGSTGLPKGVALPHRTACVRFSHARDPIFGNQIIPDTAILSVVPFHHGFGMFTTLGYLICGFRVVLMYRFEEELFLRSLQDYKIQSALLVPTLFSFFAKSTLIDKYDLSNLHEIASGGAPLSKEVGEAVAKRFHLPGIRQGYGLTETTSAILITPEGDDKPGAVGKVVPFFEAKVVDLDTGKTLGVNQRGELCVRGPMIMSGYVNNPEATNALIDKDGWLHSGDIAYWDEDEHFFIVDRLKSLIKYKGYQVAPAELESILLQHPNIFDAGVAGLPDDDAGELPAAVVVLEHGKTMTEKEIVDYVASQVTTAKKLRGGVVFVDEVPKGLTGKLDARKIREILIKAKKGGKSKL

| Structure (SMILES) | inhibitor of Renilla luciferase, grade in words (Renilla luciferase) | Selectivity Value (Renilla luciferase; inhibitor 23 μM) | remaining activity at 23 µM (Renilla luciferase; inhibitor 23 μM) [%] | Selectivity Value (Renilla luciferase; inhibitor 153 μM) | remaining activity at 153 µM (Renilla luciferase; inhibitor 153 μM) [%] | Selectivity Value (Renilla luciferase; inhibitor 1000 μM) | remaining activity at 1000 µM (Renilla luciferase; inhibitor 1000 μM) [%] | remaining activity at 23 µM (firefly luciferase) [%] | remaining activity at 153 µM (firefly luciferase) [%] | remaining activity at 1000 µM (firefly luciferase) [%] | Selectivity Value (Renilla luciferase; inhibitor 10 μM) | remaining activity at 10 µM (Renilla luciferase; inhibitor 10 μM) [%] | Selectivity Value (Renilla luciferase; inhibitor 100 μM) | remaining activity at 100 µM (Renilla luciferase; inhibitor 100 μM) [%] | remaining activity at 10 µM (firefly luciferase) [%] | remaining activity at 100 µM (firefly luciferase) [%] |
| --- | --- | --- | --- | --- | --- | --- | --- | --- | --- | --- | --- | --- | --- | --- | --- | --- |
| COc1ccc(CNC(=O)COc2ccc3[nH]cc(CCN(C)C)c3c2)cc1 [Compound 3031, 2-(3-(2-(dimethylamino)ethyl)-1H-indol-5-yloxy)-N-(4-methoxybenzyl)acetamide] | suitable inhibitors of Renilla luciferase | 1 | 96 | 0.99 | 90 | 1.4 | 66.5 | 96 | 89 | 89 |  |  |  |  |  |  |
| CN(C)CCc1c[nH]c2ccc(/C=C/C(=O)NCc3ccc(N(C)C)cc3)cc12 [Compound 3043, (E)-N-(4-(dimethylamino)benzyl)-3-(3-(2-(dimethylamino)ethyl)-1H-indol-5-yl)acrylamide] | excellent inhibitors of Renilla luciferase |  |  |  |  |  |  |  |  |  |  |  |  |  |  |  |
| COc1ccc(CNC(=O)/C(C#N)=C/c2ccc3[nH]cc(CCN(C)C)c3c2)cc1 [Compound 3044, (E)-2-cyano-3-(3-(2-(dimethylamino)ethyl)-1H-indol-5-yl)-N-(4-methoxybenzyl)acrylamide] | inhibitors of Renilla luciferase |  |  |  |  | 18.9 | 7.6 |  |  | 132 | 1.2 | 85 | 2.8 | 36 | 99 | 100 |
| COc1ccc(COC(=O)/C=C/c2ccc3[nH]cc(CCN(C)C)c3c2)cc1 [Compound 3045, (E)-4-methoxybenzyl 3-(3-(2-(dimethylamino)ethyl)-1H-indol-5-yl)acrylate] | suitable inhibitors of Renilla luciferase | 1.0 | 97 | 1.0 | 98 | 1.3 | 74.7 | 100 | 100 | 98 |  |  |  |  |  |  |
| COc1ccc(CNC(=O)/C=C/c2ccc3ncccc3c2)cc1 [Compound 3046, (E)-N-(4-methoxybenzyl)-3-(quinolin-6-yl)acrylamide] | inhibitors of Renilla luciferase |  |  |  |  | 3.4 | 24.5 |  |  | 83 | 1.0 | 96 | 1.3 | 78 | 100 | 99 |
| COc1ccc(CNC(=O)/C=C/c2ccc3c(c2)c(CCN(C)C)cn3C)cc1 [Compound 3049, (E)-3-(3-(2-(dimethylamino)ethyl)-1-methyl-1H-indol-5-yl)-N-(4-methoxybenzyl)acrylamide] | excellent inhibitors of Renilla luciferase |  |  |  |  |  |  |  |  |  |  |  |  |  |  |  |
| CCCCCCNC(=O)/C=C/c1ccc2[nH]cc(CCN(C)C)c2c1 [Compound 3050, (E)-3-(3-(2-(dimethylamino)ethyl)-1H-indol-5-yl)-N-hexylacrylamide] | suitable inhibitors of Renilla luciferase | 1.1 | 93 | 1.0 | 99 | 1.9 | 55 | 102 | 102 | 102 |  |  |  |  |  |  |
| COc1ccc(CNC(=O)/C=C/c2ccc3[nH]cc(CCN(C)C)c3c2)c(OC)c1 [Compound 3051, (E)-N-(2,4-dimethoxybenzyl)-3-(3-(2-(dimethylamino)ethyl)-1H-indol-5-yl)acrylamide] | excellent inhibitors of Renilla luciferase |  |  |  |  | 53.7 | 1.9 |  |  | 102 | 1.9 | 55 | 7.3 | 14 | 102 | 102 |
| C=C(C(=O)NCc1ccc(OC)cc1)c1ccc2ncccc2c1 [Compound 3053, N-(4-methoxybenzyl)-2-(quinolin-6-yl)acrylamide] | suitable inhibitors of Renilla luciferase | 1.1 | 95 | 1.1 | 90 | 1.1 | 84.7 | 100 | 97 | 91 |  |  |  |  |  |  |
| C=C(C(=O)NCc1ccc(OC)cc1)c1ccc2[nH]ccc2c1 [Compound 3054, 2-(1H-indol-5-yl)-N-(4-methoxybenzyl)acrylamide] | suitable inhibitors of Renilla luciferase | 1.1 | 95 | 1.1 | 95 | 1.1 | 93.3 | 101 | 102 | 101 |  |  |  |  |  |  |
| COc1ccc(CNC(=O)/C=C/c2ccc3c(c2)c(CCN(C)C)cn3Cc2ccccc2)cc1 [Compound 3055, (E)-3-(1-benzyl-3-(2-(dimethylamino)ethyl)-1H-indol-5-yl)-N-(4-methoxybenzyl)acrylamide] | inhibitors of Renilla luciferase |  |  |  |  | 5.0 | 20 |  |  | 99 | 1.2 | 85 | 2.2 | 44 | 100 | 98 |
| COc1ccc(CNC(=O)/C=C/c2ccc3[nH]ccc3c2)cc1 [Compound 3056, (E)-3-(1H-indol-5-yl)-N-(4-methoxybenzyl)acrylamide] | inhibitors of Renilla luciferase |  |  |  |  | 2.7 | 32.6 |  |  | 89 | 1.1 | 93 | 1.3 | 79 | 101 | 100 |
| COc1ccc(CNC(=O)/C=C/c2ccc3oc(=O)cc(C)c3c2)cc1 [Compound 3057, (E)-N-(4-methoxybenzyl)-3-(4-methyl-2-oxo-2H-chromen-6-yl)acrylamide] | suitable inhibitors of Renilla luciferase | 1 | 100 | 1.1 | 93 | 1.3 | 77.5 | 100 | 98 | 102 |  |  |  |  |  |  |
| C=C(C(=O)NCc1ccc(OC)cc1)c1ccc2oc(=O)cc(C)c2c1 [Compound 3058, N-(4-methoxybenzyl)-2-(4-methyl-2-oxo-2H-chromen-6-yl)acrylamide] | suitable inhibitors of Renilla luciferase | 1.05 | 96 | 1.04 | 98 | 1.04 | 98.8 | 101 | 102 | 103 |  |  |  |  |  |  |
| COc1ccc(CNC(=O)/C(C#N)=C/CCCCCCCBr)cc1 [Compound 3059, (E)-10-bromo-2-cyano-N-(4-methoxybenzyl)dec-2-enamide] | suitable inhibitors of Renilla luciferase | 1.02 | 99 | 1.05 | 96 | 1.07 | 94.6 | 101 | 101 | 101 |  |  |  |  |  |  |
